For 35 compounds, inhibition in vivo, inhibition and IC50 results are on record in patent US5324747A, “N-substituted anilines, inhibitors of phospholipases A2” (Hoffmann-La Roche Inc., priority 1992, dated 1994).

As usually defined, the inhibition is the relative decrease from the control value, in per cent. For orientation: IC50 means the point on the concentration scale where inhibition reaches its midpoint.

Structures can show the parent of a compound that is named as a salt.

The subject of the first assay is PLA2 Rat Paw Edema. Nature of the assay: Phospholipase A2 Rat Paw Edema. It is filed as in vivo, Lewis rats. To be noted: Rattus norvegicus; 2 hr; 30 mg/kg; read-out: % Inhib of PLA2 Rat Paw Edema 2 hr (30 mg/kg). As to the method:
Phospholipase A2 Rat Paw Edema
Representation compounds of the invention were tested in rats to determine their ability to inhibit the acute inflammatory response induced by the injection of snake venom phospholipase A2. Test compounds are administered intraperitoneally or orally to groups of seven Lewis rats (≈200 gm) 1 hr prior to phospholipase A2 administration. The test compounds are dissolved in dimethyl sulfoxide for intraperitoneal administration and dissolved or suspended in Labrafil M-1944CS for oral administration. At 0 hr, 5 ug (10 units) of purified phospholipase A2 from Naja naja venom (Sigma Chem. Co.) dissolved in 0.1 mL of pyrogen free saline is injected subplantarly into the right hind paw to elicit the inflammatory response. The volume (in mL) of the right hind paw is measured by immersion of the paw to the level of the lateral malleolus in an aqueous plethysmometer immediately prior to the injection of phospholipase A2 and then at 0.5, 2 and 4 hr after phospholipase A2 injection. The paw edema is calculated by subtracting the zero time reading from the readings taken after injection. The percent change of the edema volume from the vehicle treated control is calculated to determine the activity of the test compound. Statistical analysis of the mean paw edema values of the control versus the treated groups is performed using Student's t-test. Significance of changes from mean value for vehicle-treated animals (*p<0.05, **p<0.01, ***p<0.001, ns/not significant).
Consider `CCCCCCCCCCCCCCCCCCOc1cc(OCCOCCOCCOCCOC)cc(N(CC(=O)O)CC(=O)O)c1` [Example 156, N-(Carboxymethyl)-N-[3-[2-[2-(2-methoxyethoxy)ethoxy]ethoxy]ethoxy]-5-(octadecyloxy)phenyl glycine], for which the inhibition in vivo at 30 mg/kg is 29%.

In the case of `CCCCCCCCCCOc1cc(OCCCCCCCCCC)cc(N(CC(=O)OCCN(CC)CC)CC(=O)OCCN(CC)CC)c1` [Example 130, N-[3,5-bis(Decyloxy)phenyl]-N-[2-[2-(diethylamino)ethoxy]-2-oxoethyl]glycine 2-(diethylamino)ethyl ester dihydrochloride], the inhibition in vivo at 30 mg/kg was 2%.

A further assay concerns the target T1, HSF-PLA2 (Homo sapiens, UniProt P14555).
T1 construct: extracellular enzyme obtained from human synovial fluid (HSF-PLA2); from tissue; host or cells: pooled human synovial fluid, added at 0.1% (v/v)
T1 sequence (P14555 21-144): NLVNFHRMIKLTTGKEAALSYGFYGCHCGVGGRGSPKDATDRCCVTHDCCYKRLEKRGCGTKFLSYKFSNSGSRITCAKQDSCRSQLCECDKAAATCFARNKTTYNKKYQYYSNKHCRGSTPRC
The assay is described as follows: Assay for Inhibition of HSF-PLA2 In Vitro. It is filed as biochemical. The conditions noted are these: (1 μM); read-out: Inhib of HSF-PLA2, % inhibition. As for the experimental part: Assay for Inhibition of HSF-PLA2 In Vitro
The PLA2 used in this test is the extracellular enzyme obtained from human synovial fluid (HSF-PLA2).
The optimal conditions which were developed for the assay of HSF-PLA2 inhibitors are summarized as follows. […] The reaction was initiated by the addition of HSF-PLA2 and duplicate samples of the mixture were incubated in 13×100 mm glass tubes with shaking for 30 minutes at 37° C. […] The extraction of lipids from the stopped reaction mixture was conducted by the further additions of […] of chloroform and 1 ml of water with mixing. After centrifuging, the lower chloroform phase was transferred to smaller glass tubes and the solvent was evaporated to dryness with a nitrogen stream. The extracted lipid residue was redissolved in 50 μl of a solution containing carrier oleic acid (0.2 mg/ml) of chloroform-methanol [9 to 1, v/v]). The whole lipid extract was applied to a preactivated (30 minutes at 110° C.) silica gel-impregnated glass fiber thin layer chromatography sheet (ITLC type SG sheet from Gelman Sciences, Inc., Ann Arbor, Mich.) using hexane-acetic acid (100 to 1, v/v) as the developing solvent. This TLC system rapidly (6 minutes) resolved the enzymatically released product, ^14 C-oleic acid, from the unreacted ^14 C-phospholipid substrate. The unsaturated lipids were located on the chromatogram by a brief exposure to iodine vapor. […] A control incubation of substrate in the absence of HSF-PLA2 was performed in each experiment.
As for `CCCCCCCCCCCCCCCCCCOc1cc(OCCOCCOCCOCCOC)cc(N(CC(=O)O)CC(=O)O)c1` [Example 156, N-(Carboxymethyl)-N-[3-[2-[2-(2-methoxyethoxy)ethoxy]ethoxy]ethoxy]-5-(octadecyloxy)phenyl glycine], the inhibition at 1 µM amounted to 100%.

On to `CCCCCCCCCCc1ccc(N(CC(=O)O)CC(=O)O)cc1` [Example 39d, N-(carboxymethyl)-N-(4-decylphenyl)glycine], for which the inhibition at 1 µM was 39%.

For the compound `CCCCCCCCCCCCCCc1ccc(N(CC(=O)O)CC(=O)O)cc1` [Example 39, N-(carboxymethyl)-N-(4-tetradecylphenyl)glycine], the inhibition at 1 µM stood at 67%.

Take `CCCCCCCCCC(=O)Oc1cc(OC(=O)CCCCCCCCC)cc(N(CC(=O)O)CC(=O)O)c1` [Example 6u, N-(carboxymethyl)-N-[3,5-bis[(1-oxodecyl)oxy]phenyl]glycine]: the inhibition at 1 µM amounted to 64%.

The same assay, now with this note: (5 μM); read-out: Inhib of HSF-PLA2, % inhibition.
For the compound `CCCCC/C=C\C/C=C\CCCCCCCC(=O)Nc1cccc(N(CC(=O)O)CC(=O)O)c1` [Example 51, N-(carboxymethyl)-N-[3-[(9Z,12Z)-(1-oxo-9,12-octadecadienyl)amino]phenyl]glycine], the inhibition at 5 µM was 67%.

In the case of `CCCCCCCC/C=C\CCCCCCCC(=O)Nc1cccc(N(CC(=O)O)CC(=O)O)c1` [Example 51], the inhibition at 5 µM was determined as 63%.

The assay is the same for the next values; noted with them: (10 μM); read-out: Inhib of HSF-PLA2, % inhibition.
For `O=C(O)CN(CC(=O)O)c1cc(C(=O)NC23CC4CC(CC(C4)C2)C3)cc(C(=O)NC23CC4CC(CC(C4)C2)C3)c1` [Example 6s], the inhibition at 10 µM turned out to be 30%.

For the compound `CCCCCCCCCCNC(=O)c1cccc(N(CC(=O)O)CC(=O)O)c1` [Example 36d, N-(carboxymethyl)-N-[[(decylamino)carbonyl]phenyl]glycine], the inhibition at 10 µM amounted to 46%.

In the case of `CCCCCCCCCCCCCCCCCCCc1cc(CCCCCCCCCCCCCCCCCCC)cc(N(CC(=O)O)CC(=O)O)c1` [Example 6t, N-(carboxymethyl)-N-(3,5-dinonadecylphenyl)glycine], the inhibition at 10 µM was determined as 39%.

`O=C(O)CN(CC(=O)O)c1cccc(OCCOc2ccc3ccccc3c2)c1` [Example 36g, N-(carboxymethyl)-N-[(3-(2-naphthalenyloxy)ethoxy]phenyl]glycine]: the inhibition at 10 µM was 19%.

Regarding `CCCCCCCCCCCCCCOc1cc(NCC(=O)O)cc(OCCCCCCCCCCCCCC)c1` [Example 127c, N-[3,5-bis(tetradecyloxy)phenyl]glycine], the inhibition at 10 µM stood at 73%.

The assay is the same for the next values; noted with them: (20 μM); read-out: Inhib of HSF-PLA2, % inhibition.
Consider `O=C(O)CN(CC(=O)O)c1cccc(C(=O)NC23CC4CC(CC(C4)C2)C3)c1` [Example 36h, N-(carboxymethyl)-N-[3-[(tricyclo[3.3.1.1/3,7/]dec-1-ylamino)carbonyl]phenyl]glycine], for which the inhibition at 20 µM was found to be 25%.

Consider `O=C(O)CCCCOc1cc(OCCCCC(=O)O)cc(N(CC(=O)O)CC(=O)O)c1` [Example 6i, N-(carboxymethyl)-N-[3,5-bis[(5-hydroxy-5-oxopentyl)oxy]phenyl]glycine], for which the inhibition at 20 µM turned out to be 6%.

Take `O=C(O)CN(CC(=O)O)c1ccccc1` [Example 39a, N-(carboxymethyl)-N-phenylglycine]: the inhibition at 20 µM was -10%.

The same assay, now with this note: read-out: Inhib of HSF-PLA2 IC50.
With `O=C(O)CN(CC(=O)O)c1cc(OCCOc2ccc3ccccc3c2)cc(OCCOc2ccc3ccccc3c2)c1` [Example 6o, N-(carboxymethyl)-N-[3,5-bis[2-[2-naphthalenyloxy)]ethoxy]glycine], the IC50 was determined as 600 nM.

As to `CCCCCCCC/C=C\CCCCCCCCOc1cccc(N(CC(=O)O)CC(=O)O)c1` [Example 49], the IC50 worked out at 300 nM.

With `CCCCCCCCCCCCCCCCCCNC(=O)c1cc(C(=O)NCCCCCCCCCCCCCCCCCC)cc(N(CC(=O)O)CC(=O)O)c1` [Example 6r, N-(carboxymethyl)-N-[3,5-bis[(octadecylamino)carbonyl]phenyl]glycine], the IC50 turned out to be 640 nM.

Turning to `CCCCCCCCCCc1cc(CCCCCCCCCC)cc(N(CC(=O)O)CC(=O)O)c1` [Example 29, N-(Carboxymethyl)-N-(3,5-didecylphenyl) glycine], the IC50 was found to be 1500 nM.

`CCCCCCCCCCCCCCCCCCOc1cc(OC(=O)C23CC4CC(CC(C4)C2)C3)cc(N(CC(=O)O)CC(=O)O)c1` [Example 58f, N-(Carboxymethyl)-N-[[3-(octadecyloxy)-5-(tricyclo[3.3.1.1/3,7]dec-1-ylcarbonyl)oxy]phenyl]glycine]: the 50% inhibitory concentration (IC50) came to 300 nM.

On to `CCCCCCCCCCCCCCCCCCOc1cc(OCCCCCCCCCCCCCCCCCC)cc(N(CC(=O)O)CC(=O)O)c1` [Example 6f, N-(carboxymethyl)-N-[3,5-bis(octadecyloxy)phenyl]glycine], for which the IC50 amounted to 500 nM.

As for `CCCCCCCCCCCCCCCCCCOc1cc(NCC(=O)O)cc(OC(=O)C23CC4CC(CC(C4)C2)C3)c1` [Example 175, N-[[3-(Octadecyloxy)-5-(tricyclo[3.3.1.1/3.7/]dec-1-ylcarbonyl)oxy]phenyl]glycine], the IC50 worked out at 300 nM.

Turning to `CCCCCCCCCCCCCCCCCCCc1cccc(N(CC(=O)O)CC(=O)O)c1` [Example 36f, N-(carboxymethyl)-N-(3-nonadecylphenyl)glycine], the IC50 is 200 nM.

On to `CCCCCCCCCC(=O)Nc1cc(NC(=O)CCCCCCCCC)cc(N(CC(=O)O)CC(=O)O)c1` [Example 21], for which the IC50 came to 3800 nM.

For the compound `CCCCCCCCCCCCCCCCCCOc1cc(OCCCCCCCCCCC(=O)OC)cc(N(CC(=O)O)CC(=O)O)c1` [Example 58d, N-(carboxymethyl)-N-[3-(11-methoxy-11-oxoundecyloxy)-5-(octadecyloxy)phenyl]glycine], the concentration for half-maximal inhibition (IC50) was 80 nM.

`CCCCCCCCCCCCCCCCCCOc1cc(OCCCCCCCCCCC(=O)O)cc(N(CC(=O)O)CC(=O)O)c1` [Example 58e]: the IC50 was 200 nM.

As for `CCCCC/C=C\C/C=C\CCCCCCCCOc1cccc(N(CC(=O)O)CC(=O)O)c1` [Example 49, N-(carboxymethyl)-N-[3-[(9Z,12Z)-(9,12-octadecadienyl]oxy]phenyl]glycine], the IC50 amounted to 200 nM.

As to `O=C(O)CN(CC(=O)O)c1cc(OCCOc2cccc3ccccc23)cc(OCCOc2cccc3ccccc23)c1` [Example 6p, N-(carboxymethyl)-N-[3,5-bis[2-[1-naphthalenyloxy)]ethoxy]glycine], the concentration for half-maximal inhibition (IC50) amounted to 2000 nM.

Take `CCCCCCCCCCCCCCCCCCOc1cc(OC(=O)C(c2ccccc2)c2ccccc2)cc(N(CC(=O)O)CC(=O)O)c1` [Example 58g]: the IC50 stood at 100 nM.

`CCCCCCCCCCCCCCCCCCOc1cc(OC(C)=O)cc(N(CC(=O)O)CC(=O)O)c1` [Example 80]: the IC50 was 220 nM.

As to `O=C(O)CN(CC(=O)O)c1cc(OCCCOc2cccc(-c3ccccc3)c2)cc(OCCCOc2cccc(-c3ccccc3)c2)c1` [Example 6m], the IC50 was determined as 580 nM.

Regarding `CCCCCCCCCCOc1ccc(N(CC(=O)O)CC(=O)O)cc1OCCCCCCCCCC` [Example 119a, N-(carboxymethyl)-N-[3,4-bis(decyloxy)phenyl]glycine], the IC50 was determined as 160 nM.

As to `O=C(O)CN(CC(=O)O)c1cc(OCCCOc2ccc(-c3ccccc3)cc2)cc(OCCCOc2ccc(-c3ccccc3)cc2)c1` [Example 6n], the IC50 was determined as 400 nM.

Take `CCCCCCCCCCCCCCCCCCOc1cc(OCCCOc2cccnc2)cc(N(CC(=O)O)CC(=O)O)c1` [Example 58i]: the half-maximal inhibitory concentration (IC50) turned out to be 300 nM.

As to `CCCCCCCCC(O)COc1cc(NCC(=O)O)cc(OCC(O)CCCCCCCC)c1` (stereo not drawn) [127 d], the half-inhibitory concentration (IC50) worked out at 3500 nM.
